This passage reports melting point results from a melting point compilation (Tetko et al.; mined from patent text by program, amines drawn as free bases though some values may be those of a salt).

For orientation: melting point means the temperature, or range, at which the solid turns liquid. In turn, `O=C(Nc1nnc(C(F)(F)F)o1)C(c1ccccc1)c1ccccc1` returned a melting point of 149 to 150 °C.
`CC(=O)C1C=C(Br)C(=O)CO1` (stereo not given) returned a melting point of 78 to 80 °C.
`CC(C)(N)c1ccc(-c2nc(Nc3ccc(CCn4ccnc4)cc3)ncc2C#N)cc1` gave a melting point of 184 °C.
The figure for `CCOC(=O)C(C#N)=CNc1ncccc1CC` is 122 to 125 °C; for `NC(=O)c1cccc(-c2ccnc3cc(Cc4cccc(C(F)(F)F)c4)sc23)c1` it is 191 to 192 °C.
The molecule `CC(C)OC(=O)c1cc(-n2c(N)c(C#N)cnc2=O)c(F)cc1Cl` showed a melting point of 212 to 213 °C.
The figure for `O=C(Nc1cc(Cl)cc(Cl)c1)C1=C(O)N2CCCN=C2S1` is 270 °C.
The figure for `O=C(Nc1cc(F)c(N2CC(=O)N(COC3CCCCO3)C2)c(F)c1)OCc1ccccc1` (stereo not given) is 116 to 118 °C; for `COC(=O)C(OC(C(=O)OC)C(=O)OC)C(=O)OC` it is 60 to 61 °C; for `Cc1nc(N2CCN(Cc3c(C)noc3-c3ccccc3)C2=O)sc1C(=O)NCc1cccnc1` it is 109 to 111 °C.
The figure for `CN1C(=O)N(c2nnc(C(C)(C)C)s2)C(=O)C1(C)OC(N)=O` (stereo not given) is 165 °C.
Molecule `CN(C)c1cc(OC(F)(F)F)cc2sc(N)nc12` came in with a melting point of 184 °C.
The figure for `CCCCCCCCCCCCSC1c2cccc(O)c2C(=O)c2c(O)cccc21` is 76 °C; for `CCOc1ccc2c(c1)n(C1CCCCC1)c(=O)n2S(=O)(=O)c1ccc(C(=O)NC(C)(C)CC)cc1OC` it is 219 °C.
Molecule `COc1cc(C(C)=O)ccc1OCCCN1CCC(c2noc3cc(F)ccc23)CC1` returned a melting point of 118 to 120 °C.
The figure for `CN1C(=O)C(c2cn(C)c3ccccc23)=C(c2cn(C)c3ccccc23)C1=O` is > 290 °C; for `CC(C)CCCC(C)C1CCC2C3CC4(OCCO4)C4CC(O)CCC4(C)C3CCC12C` (stereo not given) it is 114 to 115 °C; for `OCc1c[nH]c(-c2ccc(O)cc2)n1` it is 212 to 214 °C.
With `O=C(CCCN1CCN(c2ccc(CO)c(Cl)c2)CC1)c1ccc(Cl)cc1` the figure was 137 to 139 °C.
The molecule `COC(=O)NNC(=S)Cc1ccc(Cl)cc1` displayed a melting point of 148 °C.
With `CC(C)c1cccc(COCCCO)c1NC(=O)CC1c2ccccc2Oc2ccccc21` the figure was 150 to 151 °C; with `CC(C)(C(=O)c1cccs1)C(=O)c1cccs1`, 153 to 156 °C.
`CC(C)(C)c1cc(CCC(=O)NN)cc(C(C)(C)C)c1O` showed a melting point of 153 to 154 °C.
For `COc1ccc(-n2c(=O)n(OCc3ccccc3)c(=O)c3cc(F)c(F)cc32)cc1`, the melting point fell in the range of 211 to 212 °C.
With `Cc1c(Sc2ccc(Cl)cc2)c2c(N3CCN(C(=O)OC(C)(C)C)CC3)cccc2n1CC(=O)O` the figure was 173 °C; with `O=Cc1cccc2c1nc(-c1c(F)cccc1F)n2Cc1c(F)cccc1F`, 151 to 153 °C; with `CN(C)C(=O)c1cnn(C)c1C(=O)Nc1ccn2nc(N3CCOCC3)nc2c1`, 237 to 240 °C.
The figure for `CN1CCc2c(c3cc(Cl)ccc3n2CCC#N)C1` is 127 to 129 °C; for `Nc1ccc(C#Cc2ccc(N3CCN4CCC3CC4)nn2)cc1` it is 182 to 183 °C.
With `CCCCCCCCCCCCCCc1ccc(O)c(C(C)=O)c1` the figure was 38.5 to 39.5 °C; with `CN(C)Cc1nc2cccnc2[nH]1`, 123 to 125 °C.
In the case of `COC(=O)c1ncoc1C`, the melting point lay within 46.5 to 47 °C.
With `CCCCCNC(=O)N(C)c1cccc(-c2ccc(CCC(=O)O)cc2OCCOCC)c1` the figure was 61 to 62 °C.
With `CC(CCCC(C(=O)O)C(=O)O)C1CC=C2C3=C(CCC21C)C1(C)CCC(O)C(C)(C)C1CC3` (stereo not given), the melting point is 188 to 190 °C.
With `O=C(CC1CCN(CCCn2c(=O)[nH]c3ccccc32)CC1)c1cccc(Cl)c1` the figure was 160 °C; with `CCOC(=O)N(c1ccc(C(O)(C(F)(F)F)C(F)(F)F)cc1)S(C)(=O)=O`, 108 to 112 °C.
The figure for `CN(CCCCNC(=NCCSCc1csc(NC(=N)N)n1)NC#N)CCN(Cc1ccc(F)cc1)c1ccccn1` is 137 °C; for `COc1nc(OC)nc(N(C)C(=O)NS(=O)(=O)c2ccccc2C(F)F)n1` it is 164 to 170 °C; for `CC1(C)CC(OC(=O)CCCCCCCCC(=O)OC2CC(C)(C)PC(C)(C)C2)CC(C)(C)P1` (stereo not given) it is 58 to 63 °C.
Take `Cc1ccc(F)cc1C(C)(C)CC(O)(Cn1ccc(=O)c2sccc21)C(F)(F)F` (stereo not given): the melting point fell in the range of 175 to 176 °C.
For `CC(=O)NCCC1(C[N+](=O)[O-])CCCCC1`, the melting point lay in the range of 68 to 70 °C.
With `O=C1CCc2cc(Cl)c(Cl)cc21`, the melting point was 155 °C.
With `COC(=O)/C=C/c1ccc(Br)s1` the figure was 60 to 62 °C.
The figure for `CC(C)(C)OC(=O)N1CCNC[C@H]1C(c1ccccc1)c1ccccc1` is 100 to 105 °C; for `CC(C)(C)OC(=O)N[C@@H](Cc1cc(F)cc(F)c1)[C@H](O)CO` it is 122 °C.
With `CC[C@H](NC(=O)OC(C)(C)C)c1nc2c(C(F)(F)F)cccc2c(O)c1C(=O)Nc1nccs1` the figure was 260 to 262 °C; with `CSc1ncc(C(=O)O)c(Nc2ccc3[nH]ncc3c2)n1`, > 270 °C; with `CN(C)S(=O)(=O)Oc1ccc2c(c1)CCC1C2CCC2(C)C(O)C(O)CC12` (stereo not given), 180 to 181 °C.
In turn, `CC(C)n1nc(-c2sc(C(=O)NCCc3ccccn3)nc2-c2ccccc2)ccc1=O` displayed a melting point of 144 to 147 °C.
The figure for `CCOC(=O)c1csc(-c2ncccc2O)n1` is 131 to 134 °C.
With `CC(C)c1cccc2c1C(=O)NS2(=O)=O` the figure was 177 °C.
The figure for `CC(=O)c1ccc(-c2nn(C(C)c3oc4ccccc4c(=O)c3-c3cccc(F)c3)c3ncnc(N)c23)cc1` (stereo not given) is 218 to 221 °C; for `Cc1c(F)cc2c(=O)c(C(=O)O)cn(CCF)c2c1F` it is 215 to 217 °C.
Consider `CCc1c(C(=O)c2ccc(OC)cc2)c2cccc3c2n1C(CN1CCOCC1)CO3` (stereo not given), for which the melting point was in the range of 186 to 187 °C.
`COCN(c1noc(C)c1C)S(=O)(=O)C1(Br)C=CC=CC1` (stereo not given): the melting point was 71 to 72 °C.
With `Cc1nc2c(OCc3ccccc3)nccc2n1C` the figure was 115 to 116 °C; with `OC1CSC(Oc2cnc(-c3ccncc3)c(Cl)c2)C(O)C1O` (stereo not given), 226 °C.
The molecule `O=C1CNc2ncc(-c3cnc4[nH]ccc4c3)nc2N1CCC1CCOCC1` had a melting point of 255 to 258 °C.
With `COC(=O)c1ccc2cc(OC(=S)N(C)C)ccc2c1` the figure was 144 to 147 °C.
`C=C(c1ccccc1)S(=O)(=O)c1ccc(C(C)(C)C)cc1` came in with a melting point of 99 °C.
The figure for `CCOC(=O)C(=O)Nc1ccc2ccccc2c1[N+](=O)[O-]` is 139 to 140 °C; for `CC(=O)Oc1cc2ccccc2cc1C(N)=O` it is 201 to 202 °C.
Molecule `Cc1ccccc1-n1c(Cn2cnc3c(N)ncnc32)nc2cccc(Cl)c2c1=O` displayed a melting point of 262 to 266 °C.
With `CC1NC(=Nc2ccccc2N2CCOCC2)N(CCO)C1C` (stereo not given) the figure was 108 to 109 °C; with `COC(=O)c1ccc2nc(C)n(Cc3ccc(Cl)cc3OC)c2n1`, 166 to 168 °C.
Consider `Cn1c(=O)c2c(nc(C=Cc3cccc(N)c3)n2C)n(C)c1=O`, for which the melting point lay within 222 to 224 °C.
With `N[C@@H](Cc1ccccc1)[C@@H](O)C[C@H](Cc1ccccc1)NC(=O)OCc1cncs1` the figure was 61 to 63 °C.
Consider `C[C@@H](Oc1cncc(C(=O)Nc2ccc(C#N)cc2)c1)c1ccc(F)cc1`, for which the melting point lay in the range of 151 to 152 °C.
For `O=C1CC(c2ccc(OCc3ccccc3)cc2)CN1O` (stereo not given), the melting point fell in the range of 150 to 155 °C.
Molecule `CCN(CC)C(=O)Nc1ccc(S(=O)(=O)N2C(=O)C(NCCO)(c3ccccc3Cl)c3cc(Cl)ccc32)cc1` (stereo not given) had a melting point of 192 to 193 °C.
With `CON(C)C(=O)c1cc2sc(C)c(N(C)S(=O)(=O)c3cccs3)c2[nH]1` the figure was 187 °C; with `CCOC(=O)COc1ccc([N+](=O)[O-])cc1Cl`, 73 to 74 °C.
The figure for `CN(C)Cc1ccc(CSCCNc2ncc(N)c(=O)[nH]2)o1` is 127 to 132 °C.
Molecule `CCCC(CC)Nc1cc(C(=O)O)ccc1N1C(=O)CCC1(CO)CO` (stereo not given) showed a melting point of 232 to 233 °C.
For the molecule `Cc1nnc(OC(=O)N2CCN(C)CC2)n1-c1ccc(Cl)cn1`, the melting point fell in the range of 214 to 216 °C.
In turn, `Fc1ccc(-c2ncn(C3CCNCC3)c2-c2ccnc(Oc3ccccc3F)n2)cc1` had a melting point of 154 to 155 °C.
The figure for `CC(=O)OC1NC(=O)C2=C1c1ccc(Cl)cc1C(c1ccccc1Cl)=NC2` (stereo not given) is 219 to 221 °C.
In the case of `Cc1ccc(C)c(OCCC(Cl)C(C)(C)C(=O)O)c1` (stereo not given), the melting point lay within 117 to 118 °C.
On to `CC(C)CC1(C(CCN2C(=O)c3ccccc3C2=O)C(=O)NO)CCN(Cc2ccccc2)C1=O` (stereo not given), for which the melting point fell in the range of 162 to 164 °C.
With `CC1Oc2c(Cc3ccccc3)cc(CN3CCN(c4ccc(C(=O)NC5CC5)cc4)CC3)cc2NC1=O` (stereo not given) the figure was 192 to 203 °C.
With `COc1ccc(C(=O)Nc2ccncc2)c2c1oc1ccc(C(F)(F)F)cc12` the figure was 259 °C; with `Oc1ccccc1-n1cccc1`, 52 to 54 °C.
The figure for `CCC1(c2cccs2)OCC(=O)Nc2ccc(-c3csc(C#N)c3)cc21` (stereo not given) is 202 to 204 °C.
The molecule `Oc1ccc(Cc2ccc(OCc3ccccc3)cc2)cc1` displayed a melting point of 95 to 96 °C.
`CC(C)(C)c1ccc(C(N)=CC#N)cc1` gave a melting point of 74 to 75 °C.
Regarding `Cc1ccc(S(=O)(=O)Nc2nc(-c3ccc(Cl)c(Cl)c3)cs2)cc1`, the melting point fell in the range of 205 to 206 °C.
`CCCCc1nc(SC)c(C(=O)OCC)n1Cc1ccc(-c2nc3ccccn3c2C#N)cc1` gave a melting point of 168 °C.
The figure for `NC(=O)Oc1ccc2c(c1)[nH]c(=O)c1c3ccc(OC(N)=O)cc3oc21` is 215 to 220 °C; for `Clc1ccc(-c2n[nH]cc2Cl)cc1` it is 158 °C; for `COc1ccc2c(c1)C(=NN1CCOC1=O)CCO2` it is 54 to 64 °C.
